Data as given in patent publication US20100015126A1, “Methods of Binding of Cross-Beta Structures By Chaperones” (priority 2006, published 2010).

Experiments:
[1] = system: human monocyte-derived dendritic cells; assay: FACS: binding of misfolded proteins and BiP to human monocyte-derived dendritic cells; format: cell-based
From the text: In vitro generation of peripheral blood human monocyte-derived dendritic cells, and analyses for binding of misfolded proteins and BiP
Human DCs are generated from non-proliferating precursors selected from peripheral blood mononuclear cells (PBMCs), essentially by published methods (Sallustro and Lanzavecchia [1994], J. Exp. Med. 179 1109-1118). Relative abundant presence of CD1a, CD32, CD36, CD40, CD54, CD86, HLA-DR and CD206 and relative low content of CD14 positive, CD16 positive, CD64 positive, CD80 positive, CD83 positive and CD163 positive cells serve as a quality measure for the immature DCs. After obtaining the immature DCs upon stimulation with GM-CSF and IL-4, direct binding of misfolded proteins and BiP to the DCs is assessed by incubating 200.000 cells (2*10^6 cells/ml) for 30 minutes at 4° C. under metabolic arrested state, with 1) PBS, 2) 58 μg/ml BiP (830 nM), 4) 250 μg/ml BSA-AGE (3.6 μM), 5) BSA-AGE+BiP, 6) 250 μg/ml oxLDL, 7) oxLDL+BiP, 8) mixture of BiP-binding peptides 6BB8-11, 13 (see Table 5), 125 μg/ml+BiP, and 8) 62.5 μg/ml Aβ16-22, 62.5 μg/ml Aβ25-35+BiP. After the incubation and careful washing of the cells, binding of BiP, BSA-AGE and oxLDL is assessed with FACS, using primary antibodies monoclonal anti-FLAG antibody, monoclonal anti-glycated human fibronectin antibody 4B5 and rabbit serum with anti-human apoliprotein B-100 antibody (Dade Behring, Newark, Del., USA), and the appropriate FITC- or PE-labeled secondary antibody. Mean fluorescence intensity (MFI) ratio's are determined by measuring background fluorescence.

HUVECs = assay: FACS: binding of misfolded proteins and BiP to HUVECs; format: cell-based, human
Experimental: For these experiments HUVECs were isolated by trypsinization. After trypsinization cells were collected in RPMI 1640, containing P/S and 10% FCS and centrifuged. After centrifugation cells were resuspended in RPMI medium without FCS at a concentration of 1.250.000 cells/250 μl. Individual 4-ml tubes (polypropylene, Greiner), containing 250 μl cell suspensions were made. To each tube 75 μl of a sample, containing either, • a. buffer (PBS) only, or • b. 25 μl PBS+50 μl BiP (1.16 mg/ml), or • c. 50 μl buffer with 25 μl oxLDL (1 mg/ml), or • d. 74 μl buffer with 1 μl BSA-AGE (25 mg/ml), or • e. 24 μl PBS+1 μl BSA-AGE (25 mg/ml)+50 μl BiP (1.16 mg/ml), or • f. 25 μl oxLDL (1 mg/ml)+50 μl BiP (1.16 mg/ml), • g. 1.6 μl dIgIV-65 (20 mg/ml)+73.4 μl PBS • h. […]
was added. Subsequently, the cells were incubated with the sample for approximately 30 minutes at 4° C. Next, cells were pelleted by centrifugation and the supernatant was discarded. Cells were washed subsequently with FACS buffer (PBS/0.5% BSA/0.05% m/v NaN3) at 4° C. and resuspended in FACS-buffer at approximately 1*10^5 cells/100 μl for subsequent analysis. Cell death was determined by adding 3 μl 7-aminoactinomycin D (7AAD) solution (prepared according to standard procedures). Binding of sample BSA-AGE (see elsewhere in this application for preparation details) was determined with anti-AGE monoclonal antibody 4B5 (10 μg/ml) and, after washing, with goat anti-mouse PE secondary antibodies (Jackson Immunoresearch, West Grove, USA). Binding of BSA-AGE was also assessed using the intrinsic fluorescence of BSA-AGE in the PE channel. Binding of oxidized LDL (oxLDL, oxidized for 56% following incubation with FeSO4; specific enhancement of Thioflavin T fluorescence) was determined with rabbit serum with anti-ApoB100 polyclonal antibodies at a concentration of 160 μg/ml and, after washing the cells, with FITC-labelled goat anti-rabbit antibodies (1:200, Jackson). Binding of dIgIV-65 was assessed by using anti-Human IgG antibody. BiP binding was determined using the earlier mentioned anti-FLAG antibody (M2, Sigma-Aldrich).

immobilized BiP = biological target: T1, immobilized BiP (Homo sapiens, UniProt P11021); assay: Depletion of solutions from misfolded proteins using immobilized BiP (ELISA); format: binding; settings: BiP coated at 5 μg/ml
T1 construct: The human BiP gene except the signal peptide encoding region was obtained from Geneart (Germany); linker […]; made in house; host or cells: HEK 293E cells, transient transfection, PABC674 vector; secreted into the medium
Experimental: We analysed whether recombinant human BiP with a C-terminal FLAG-tag and His-tag can be applied for depleting solutions from misfolded proteins comprising crossbeta structure.
BiP was coated at a concentration of 5 μg/ml at Greiner Microlon high-binding plates, for 1 h at room temperature with motion. As a negative control buffer was coated. ELISAs were performed essentially as described before. […] All binding buffers were PBS/0.1% (v/v) Tween20. Binding of dOVA was assayed using monoclonal anti-chicken egg albumin antibody (Sigma, A6075, 1:10.000 dilution) and RAMPO (Dako Cytomation, P0260, 1:3.000). […] Background signals obtained with buffer coated wells that were subsequently overlayed with protein solutions (see below), were subtracted from signals obtained with wells with coated BiP.

T1 sequence (P11021 19-654): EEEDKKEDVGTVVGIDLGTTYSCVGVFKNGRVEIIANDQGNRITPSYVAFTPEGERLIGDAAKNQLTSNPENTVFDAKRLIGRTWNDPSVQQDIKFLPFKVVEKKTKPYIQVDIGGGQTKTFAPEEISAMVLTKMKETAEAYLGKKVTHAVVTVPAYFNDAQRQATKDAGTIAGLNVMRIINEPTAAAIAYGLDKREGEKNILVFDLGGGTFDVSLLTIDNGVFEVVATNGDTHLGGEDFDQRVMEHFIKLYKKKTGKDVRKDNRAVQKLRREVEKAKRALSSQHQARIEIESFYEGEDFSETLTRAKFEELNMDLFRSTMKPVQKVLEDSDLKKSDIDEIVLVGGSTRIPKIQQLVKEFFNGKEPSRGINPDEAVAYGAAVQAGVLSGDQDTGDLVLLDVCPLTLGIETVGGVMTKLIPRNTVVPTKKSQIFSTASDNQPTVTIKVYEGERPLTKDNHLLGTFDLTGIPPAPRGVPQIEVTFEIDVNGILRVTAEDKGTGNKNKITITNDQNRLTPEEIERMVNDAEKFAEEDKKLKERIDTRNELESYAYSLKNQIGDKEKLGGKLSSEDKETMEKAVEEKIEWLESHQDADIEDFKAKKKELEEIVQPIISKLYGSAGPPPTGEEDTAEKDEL

Substance | Binding to DCs (MFI ratio), Misfolded protein ([1]; FACS, human dendritic cells, detection of the misfolded protein, signal divided by background signal) | Binding of misfolded protein to DCs ([1]; absence of BiP, 250 μg/ml) | Amount of BiP bound to DCs when added together with misfolded protein ([1]; compared to BiP added to DCs alone) | Amount of misfolded protein bound to DCs when added together with BiP ([1]; compared to misfolded protein without BiP) | Binding of misfolded protein to ECs (MFI ratio) (HUVECs; absence of BiP, 30 minutes at 4° C.) | Binding of misfolded protein to ECs (MFI ratio) (HUVECs; presence of BiP) | Concentration at which binding to immobilized BiP is already maximum (immobilized BiP) [µg/mL] | Extraction from solution by immobilized BiP (immobilized BiP; 1, 10, 100 μg/ml misfolded protein)
BSA-AGE | 4.0 | bind | about doubled | only slightly increased | 13.8 | 10.2 |  | 
HbAGE: human haemoglobin glycated with glucose-6-phosphate for 75 weeks |  |  |  |  |  |  | 1 | extracted specifically by BiP to an even higher extent
